For 13 molecules, Emax and IC50 results are on record in patent US11524938B2, “Aromatic sulfonamide derivatives” (Bayer Pharma Aktiengesellschaft, priority 2016, dated 2022).

This experiment has as its target T1, human P2X4 (Homo sapiens, UniProt Q99571).
T1 sequence (Q99571 1-388): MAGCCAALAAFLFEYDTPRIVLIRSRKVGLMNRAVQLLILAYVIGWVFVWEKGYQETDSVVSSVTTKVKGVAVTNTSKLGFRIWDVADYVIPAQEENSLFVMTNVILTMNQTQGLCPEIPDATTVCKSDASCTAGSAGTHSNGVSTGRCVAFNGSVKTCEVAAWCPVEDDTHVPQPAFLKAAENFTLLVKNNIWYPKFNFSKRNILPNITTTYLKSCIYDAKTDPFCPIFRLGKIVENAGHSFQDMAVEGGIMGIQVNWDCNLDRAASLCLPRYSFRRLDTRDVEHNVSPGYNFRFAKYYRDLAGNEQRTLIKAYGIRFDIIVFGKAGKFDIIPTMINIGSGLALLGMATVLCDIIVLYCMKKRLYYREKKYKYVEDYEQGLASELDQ
In words: Human P2X4 HEK Cell FLIPR Assay. In kind it is cell-based. To be noted: agonist Bz-ATP at EC80; for Emax: HEK293, HEK293 cells, percentage of maximal inhibition, read-out: Human P2X4 HEK Cells (FLIPR Assay) avg Efficacy [%]; for pIC50: HEK293 cells, individual values listed where some fall outside detection range. In outline: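 Calcium flux read by FLIPR for 120 sec after Bz-ATP challenge at EC80 (established each assay day), following 30 min room-temperature compound preincubation in dye-loaded stable human P2X4 HEK293 cells. Peak RFU over basal normalized to agonist control; IC50, maximal inhibition and Hill coefficient from triplicate means.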

Each structure is given as a SMILES string. pIC50: −log10 of the molar value. Bounds are passed on as bounds.

By pIC50 is commonly meant the IC50 on a negative log10 scale, so that one unit is a factor of ten. On to `Cc1cnn(-c2ccc(NC(=O)Cc3ccccc3F)cc2S(N)(=O)=O)c1` [Example 262, 2-(2-Fluorophenyl)-N-[4-(4-methyl-1H-pyrazol-1-yl)-3-sulfamoylphenyl]acetamide], for which the Emax amounted to 92% and the pIC50 is 6.63.

Take `NS(=O)(=O)c1cc(NC(=O)Cc2ccccc2F)ccc1-n1cnc(C2CC2)c1` [Example 263, N-[4-(4-Cyclopropyl-1H-imidazol-1-yl)-3-sulfamoylphenyl]-2-(2-fluorophenyl)-acetamide]: the Emax is 96% and the pIC50 was 6.47.

`NS(=O)(=O)c1cc(NC(=O)Cc2ccccc2F)ccc1-n1ccc(C2CC2)n1` [Example 264, N-[4-(3-Cyclopropyl-1H-pyrazol-1-yl)-3-sulfamoylphenyl]-2-(2-fluorophenyl)-acetamide]: the Emax stood at 76% and the pIC50 is 5.39.

On to `COCCc1cnn(-c2ccc(NC(=O)Cc3ccccc3F)cc2S(N)(=O)=O)c1` [Example 265, 2-(2-Fluorophenyl)-N-{4-[4-(2-methoxyethyl)-1H-pyrazol-1-yl]-3-sulfamoyl-phenyl}acetamide], for which the Emax was 84% and the pIC50 was 6.45.

For the molecule `NS(=O)(=O)c1cc(NC(=O)Cc2ccccc2Cl)ccc1-c1ccccc1` [Example 266, 2-(2-Chlorophenyl)-N-(2-sulfamoylbiphenyl-4-yl)acetamide], the Emax was 94% and the pIC50 was 8.15.

As for `NS(=O)(=O)c1cc(NC(=O)Cc2ccccc2Cl)ccc1-c1cnn(CC2CC2)c1` [Example 267, 2-(2-Chlorophenyl)-N-{4-[1-(cyclopropylmethyl)-1H-pyrazol-4-yl]-3-sulfamoyl-phenyl}acetamide], the Emax turned out to be 98% and the pIC50 was 8.70.

Regarding `COCCn1cc(-c2ccc(NC(=O)Cc3ccccc3Cl)cc2S(N)(=O)=O)cn1` [Example 268, 2-(2-Chlorophenyl)-N-{4-[1-(2-methoxyethyl)-1H-pyrazol-4-yl]-3-sulfamoylphenyl}-acetamide], the Emax was 103% and the pIC50 was 8.30.

`NS(=O)(=O)c1cc(NC(=O)Cc2ccccc2Cl)ccc1-c1cnn(C2CCNCC2)c1` [Example 269, 2-(2-Chlorophenyl)-N-{4-[1-(piperidin-4-yl)-1H-pyrazol-4-yl]-3-sulfamoylphenyl}-acetamide]: the Emax was found to be 81% and the pIC50 was 5.98.

For the molecule `NS(=O)(=O)c1cc(NC(=O)Cc2ccccc2F)ccc1-c1cnn(C2CCNCC2)c1` [Example 270, 2-(2-Fluorophenyl)-N-{4-[1-(piperidin-4-yl)-1H-pyrazol-4-yl]-3-sulfamoylphenyl}acetamide], the Emax turned out to be 51% and the pIC50 is less than 4.60.

With `NS(=O)(=O)c1cc(NC(=O)Cc2ccccc2Cl)ccc1-c1cnn(C2CNC2)c1` [Example 271, N-{4-[1-(Azetidin-3-yl)-1H-pyrazol-4-yl]-3-sulfamoylphenyl}-2-(2-chlorophenyl)-acetamide], the Emax was found to be 82% and the pIC50 was 5.94.

For the molecule `NS(=O)(=O)c1cc(NC(=O)Cc2cccc(Cl)c2)ccc1-c1ccccc1` [Example 272, 2-(3-Chlorophenyl)-N-(2-sulfamoylbiphenyl-4-yl)acetamide], the Emax was found to be 90% and the pIC50 was 6.29.

`Cc1ccn(-c2ccc(NC(=O)Cc3ccccc3Cl)cc2S(N)(=O)=O)n1` [Example 273, 2-(2-Chlorophenyl)-N-[4-(3-methyl-1H-pyrazol-1-yl)-3-sulfamoylphenyl]acetamide]: the Emax is 60% and the pIC50 was 7.46.

Consider `NS(=O)(=O)c1cc(NC(=O)Cc2ccccc2Cl)ccc1-c1ccc(Cl)nc1` [Example 274, 2-(2-Chlorophenyl)-N-[4-(6-chloropyridin-3-yl)-3-sulfamoylphenyl]acetamide], for which the Emax came out at 97% and the pIC50 was 7.72.
